Source: ChEMBL document CHEMBL1147782, “Peptide inhibitors of dengue virus NS3 protease. Part 2: SAR study of tetrapeptide aldehyde inhibitors” (Bioorg Med Chem Lett, 2006)
Square brackets hold non-standard residues; d marks the D form. Peptide text beside a SMILES is read from it. * marks the point of attachment. Phe(4-guanidino) = N=C(N)Nc1ccc(C[C@H](N)C(=O)O)cc1; Bip = N[C@@H](Cc1ccc(-c2ccccc2)cc1)C(=O)O; Phe(4-CN) = N#Cc1ccc(C[C@H](N)C(=O)O)cc1; Phe(4-Cl) = N[C@@H](Cc1ccc(Cl)cc1)C(=O)O; Phe(4-Me) = Cc1ccc(C[C@H](N)C(=O)O)cc1; NMeR = CN[C@@H](CCCNC(=N)N)C(=O)O; hPhe = N[C@@H](CCc1ccccc1)C(=O)O; NMeK = CN[C@@H](CCCCN)C(=O)O; NMeNle = CCCC[C@H](NC)C(=O)O; Phg = N[C@H](C(=O)O)c1ccccc1; dNle = CCCC[C@@H](N)C(=O)O; Nle = CCCC[C@H](N)C(=O)O; Bz = O=C(c1ccccc1)*

biological target: Genome polyprotein (dengue virus type 2, UniProt P29990); test: Inhibitory activity against dengue 2 NS3 protease fused via a linker to region of NS2B
Sequence (P29990 1346-1475 limits assumed): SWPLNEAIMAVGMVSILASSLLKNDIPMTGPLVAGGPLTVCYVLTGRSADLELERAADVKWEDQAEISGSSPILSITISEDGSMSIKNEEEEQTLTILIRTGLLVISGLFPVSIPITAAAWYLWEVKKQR
Sequence (P29990 1476-2093 limits assumed): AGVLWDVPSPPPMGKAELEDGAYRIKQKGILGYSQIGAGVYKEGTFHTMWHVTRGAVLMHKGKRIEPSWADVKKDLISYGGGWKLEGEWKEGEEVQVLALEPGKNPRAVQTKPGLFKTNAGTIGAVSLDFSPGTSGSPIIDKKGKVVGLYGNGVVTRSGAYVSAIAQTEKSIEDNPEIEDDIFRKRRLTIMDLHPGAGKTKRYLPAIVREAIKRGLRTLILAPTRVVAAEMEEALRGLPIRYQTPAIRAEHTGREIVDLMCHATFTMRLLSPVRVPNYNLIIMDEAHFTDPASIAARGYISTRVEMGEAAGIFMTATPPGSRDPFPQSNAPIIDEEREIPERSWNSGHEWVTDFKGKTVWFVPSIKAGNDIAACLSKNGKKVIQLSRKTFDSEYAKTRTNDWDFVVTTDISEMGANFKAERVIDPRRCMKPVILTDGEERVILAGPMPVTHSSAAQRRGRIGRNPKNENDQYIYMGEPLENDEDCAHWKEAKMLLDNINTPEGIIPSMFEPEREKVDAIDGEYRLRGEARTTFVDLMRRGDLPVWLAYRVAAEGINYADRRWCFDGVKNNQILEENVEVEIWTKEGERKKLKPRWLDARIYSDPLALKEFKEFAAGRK

Compound | Ki
C[C@H](NC(=O)c1ccccc1)C(=O)N[C@@H](CCCCN)C(=O)N[C@@H](CCCN=C(N)N)C(=O)N[C@H](C=O)CCCN=C(N)N (Bz-AKRR-aldehyde) | 5.3 µM
NC(N)=NCCC[C@@H](C=O)NC(=O)[C@H](CCCN=C(N)N)NC(=O)c1ccccc1 (Bz-Arg-Arg-aldehyde) | 12 µM
NCCCC[C@H](NC(=O)[C@H](Cc1ccccc1)NC(=O)c1ccccc1)C(=O)N[C@@H](CCCN=C(N)N)C(=O)N[C@H](C=O)CCCN=C(N)N (Bz-FKRR-aldehyde) | 6.8 µM
NCCCC[C@H](NC(=O)c1ccccc1)C(=O)N[C@@H](CCCN=C(N)N)C(=O)N[C@H](C=O)CCCN=C(N)N (Bz-Lys-Arg-Arg-aldehyde) | 1.5 µM
CCCC[C@@H](C(=O)N[C@@H](CCCCN)C(=O)N[C@@H](CCCN=C(N)N)C(=O)N[C@H](C=O)CCCN=C(N)N)N(C)C(=O)c1ccccc1 (Bz-[NMeNle]KRR-aldehyde) | 43.7 µM
CCCC[C@H](NC(=O)c1ccccc1)C(=O)N[C@@H](C)C(=O)N[C@@H](CCCN=C(N)N)C(=O)N[C@H](C=O)CCCN=C(N)N (Bz-[Nle]ARR-aldehyde) | 22.1 µM
CCCC[C@H](NC(=O)c1ccccc1)C(=O)N[C@@H](Cc1ccccc1)C(=O)N[C@@H](CCCN=C(N)N)C(=O)N[C@H](C=O)CCCN=C(N)N (Bz-[Nle]FRR-aldehyde) | 15.8 µM
CCCC[C@H](NC(=O)c1ccccc1)C(=O)N[C@@H](CCCCN)C(=O)N[C@@H](C)C(=O)N[C@H](C=O)CCCN=C(N)N (Bz-[Nle]KAR-aldehyde) | > 500 µM
CCCC[C@H](NC(=O)c1ccccc1)C(=O)N[C@@H](CCCCN)C(=O)N[C@@H](Cc1ccccc1)C(=O)N[C@H](C=O)CCCNC(=N)N (Bz-[Nle]KFR-aldehyde) | 40.7 µM
CCCC[C@H](NC(=O)c1ccccc1)C(=O)N[C@@H](CCCCN)C(=O)N[C@@H](CCCCN)C(=O)N[C@H](C=O)CCCNC(=N)N (Bz-[Nle]KKR-aldehyde) | 41.3 µM
CCCC[C@H](NC(=O)c1ccccc1)C(=O)N[C@@H](CCCCN)C(=O)N1CCC[C@H]1C(=O)N[C@H](C=O)CCCN=C(N)N (Bz-[Nle]KPR-aldehyde) | 109 µM
CCCC[C@H](NC(=O)c1ccccc1)C(=O)N[C@@H](CCCCN)C(=O)N[C@@H](CCCN=C(N)N)C(=O)N[C@@H](C)C=O (Bz-[Nle]KRA-aldehyde) | 193 µM
CCCC[C@H](NC(=O)c1ccccc1)C(=O)N[C@@H](CCCCN)C(=O)N[C@@H](CCCN=C(N)N)C(=O)N[C@H](C=O)Cc1ccccc1 (Bz-[Nle]KRF-aldehyde) | 15.9 µM
CCCC[C@H](NC(=O)c1ccccc1)C(=O)N[C@@H](CCCCN)C(=O)N[C@@H](CCCN=C(N)N)C(=O)N[C@H](C=O)CCCCN (Bz-[Nle]KRK-aldehyde) | 20.5 µM
CCCC[C@H](NC(=O)c1ccccc1)C(=O)N[C@@H](CCCCN)C(=O)N[C@@H](CCCNC(=N)N)C(=O)N[C@H](C=O)CCCNC(=N)N (Bz-[Nle]KRR-aldehyde) | 5.8 µM
CCCC[C@H](NC(=O)c1ccccc1)C(=O)N[C@@H](CCCCN)C(=O)N[C@@H](CCCN=C(N)N)C(=O)N[C@H](C=O)Cc1c[nH]c2ccccc12 (Bz-[Nle]KRW-aldehyde) | 7.5 µM
CCCC[C@H](NC(=O)c1ccccc1)C(=O)N[C@@H](CCCCN)C(=O)N[C@@H](CCCN=C(N)N)C(=O)N[C@H](C=O)Cc1ccc(-c2ccccc2)cc1 (Bz-[Nle]KR[Bip]-aldehyde) | 11.6 µM
CCCC[C@H](NC(=O)c1ccccc1)C(=O)N[C@@H](CCCCN)C(=O)N[C@@H](CCCN=C(N)N)C(=O)N[C@H](C=O)Cc1ccc(C#N)cc1 (Bz-[Nle]KR[Phe(4-CN)]-aldehyde) | 18.6 µM
CCCC[C@H](NC(=O)c1ccccc1)C(=O)N[C@@H](CCCCN)C(=O)N[C@@H](CCCN=C(N)N)C(=O)N[C@H](C=O)Cc1ccc(Cl)cc1 (Bz-[Nle]KR[Phe(4-Cl)]-aldehyde) | 138 µM
CCCC[C@H](NC(=O)c1ccccc1)C(=O)N[C@@H](CCCCN)C(=O)N[C@@H](CCCN=C(N)N)C(=O)N[C@H](C=O)Cc1ccc(C)cc1 (Bz-[Nle]KR[Phe(4-Me)]-aldehyde) | 6 µM
CCCC[C@H](NC(=O)c1ccccc1)C(=O)N[C@@H](CCCCN)C(=O)N[C@@H](CCCNC(=N)N)C(=O)N[C@H](C=O)Cc1ccc(NC(=N)N)cc1 (Bz-[Nle]KR[Phe(4-guanidino)]-aldehyde) | 2.8 µM
CCCC[C@H](NC(=O)c1ccccc1)C(=O)N[C@@H](CCCCN)C(=O)N[C@@H](CCCN=C(N)N)C(=O)N[C@H](C=O)c1ccccc1 (Bz-[Nle]KR[Phg]-aldehyde) | 33 µM
CCCC[C@H](NC(=O)c1ccccc1)C(=O)N[C@@H](CCCCN)C(=O)N[C@@H](CCCN=C(N)N)C(=O)N[C@@H](C=O)CCCN=C(N)N (Bz-[Nle]KR[dR]-aldehyde) | 51 µM
CCCC[C@H](NC(=O)c1ccccc1)C(=O)N[C@@H](CCCCN)C(=O)N[C@@H](CCCN=C(N)N)C(=O)N[C@H](C=O)CCc1ccccc1 (Bz-[Nle]KR[hPhe]-aldehyde) | > 500 µM
CCCC[C@H](NC(=O)c1ccccc1)C(=O)N[C@@H](CCCCN)C(=O)N(C)[C@@H](CCCN=C(N)N)C(=O)N[C@H](C=O)CCCN=C(N)N (Bz-[Nle]K[NMeR]R-aldehyde) | 47.4 µM
CCCC[C@H](NC(=O)c1ccccc1)C(=O)N[C@@H](CCCCN)C(=O)N[C@H](CCCN=C(N)N)C(=O)N[C@H](C=O)CCCN=C(N)N (Bz-[Nle]K[dR]R-aldehyde) | 115 µM
CCCC[C@H](NC(=O)c1ccccc1)C(=O)N1CCC[C@H]1C(=O)N[C@@H](CCCN=C(N)N)C(=O)N[C@H](C=O)CCCN=C(N)N (Bz-[Nle]PRR-aldehyde) | 61.4 µM
CCCC[C@H](NC(=O)c1ccccc1)C(=O)N(C)[C@@H](CCCCN)C(=O)N[C@@H](CCCN=C(N)N)C(=O)N[C@H](C=O)CCCN=C(N)N (Bz-[Nle][NMeK]RR-aldehyde) | 113 µM
CCCC[C@H](NC(=O)c1ccccc1)C(=O)N[C@H](CCCCN)C(=O)N[C@@H](CCCN=C(N)N)C(=O)N[C@H](C=O)CCCN=C(N)N (Bz-[Nle][dK]RR-aldehyde) | 28.6 µM
CCCC[C@@H](NC(=O)c1ccccc1)C(=O)N[C@@H](CCCCN)C(=O)N[C@@H](CCCN=C(N)N)C(=O)N[C@H](C=O)CCCN=C(N)N (Bz-[dNle]KRR-aldehyde) | 9.4 µM
